Values after ≈ are worked out from the molar mass of the structure shown. Like-named read-outs stand apart in the source and are kept apart here.

Results on 5 compounds are retold here after patent publication US10717735B2, “Solid forms of a compound for modulating kinases” (Plexxikon Inc., priority 2017, dated 2020).

The nature of series [1]: Solubility estimates by solvent aliquot addition, visual observation. Type of series: physicochemical. The method, then: Aliquots of various solvents were added to measured amounts of Compound I or forms of Compound I as described herein with agitation (typically sonication) at ambient temperature until complete dissolution was achieved, as judged by visual observation. Solubilities were calculated based on the total solvent used to give a solution; actual solubilities may be greater because of the volume of solvent portions utilized or a slow rate of dissolution. […] If dissolution occurred at the first aliquot the value was reported as “>”.

A short description of series [2]: Dynamic vapor sorption (DVS). Type of series: physicochemical. The conditions noted are these: from about 5% to about 95% RH. The method, then:
Dynamic Vapor […] DVS data were collected on a VTI SGA-100 Vapor Sorption Analyzer. NaCl and PVP were used as calibration standards. Samples were not dried prior to analysis. Adsorption and desorption data were collected over a range from 5 to 95% RH at 10% RH increments under a nitrogen purge. The equilibrium criterion used for analysis was less than 0.0100% weight change in 5 minutes with a maximum equilibration time of 3 hours. Data were not corrected for the initial moisture content of the samples.

The subject of another series is uveal melanoma (UM). The conditions noted are these: mouse xenograft models of uveal melanoma; cited from earlier work.
Series [3] concerns pre-clinical models of CLL. The conditions noted are these: in vitro and in vivo; cited from earlier work.
Series [4] has as its system Eμ-TCL1 leukemic splenocytes. Nature of the series: Survival of mice engrafted with Eμ-TCL1 leukemic splenocytes, comparison with Ibrutinib. Type of series: in vivo, C57BL/6 mice. The conditions noted are these: 20 mg/kg, qd; for median overall survival (OS): oral gavage at leukemia onset, vehicle 21 days (FIG. 24H). Here is the method: FIG. 24H is a Kaplan-Meier curve showing overall survival for C57BL/6 mice engrafted with Eμ-TCL1 leukemic splenocytes treated with Ibrutinib or Compound I Free Acid Amorphous (20 mg/kg, qd, oral gavage) at leukemia onset, where the median OS is: 41 days (Compound I Free Acid Amorphous, n=7), 32 days (Ibrutinib, n=8) and 21 days (vehicle, n=7). […] Survival comparisons for FIG. 24H were made with the log-rank test, and p-values were adjusted for multiple comparisons.
FIG. 24H is a Kaplan-Meier curve showing overall survival (OS) for C57BL/6 mice engrafted with Eμ-TCL1 leukemic splenocytes treated with Ibrutinib or Compound I Free Acid Amorphous (Cmpd. I FAA) (20 mg/kg, qd, oral gavage) at leukemia onset. Survival comparisons for FIG. 24H were made with the log-rank test, and p-values were adjusted for multiple comparisons.
Ibrutinib is currently the standard of care (first-in-line) treatment.

Series [5] has as its system Eμ-TCL1 with advanced leukemia. Nature of the series: Pharmacodynamic evaluation of antitumor effects in Eμ-TCL1 with advanced leukemia. Type of series: in vivo, Mice. The conditions noted are these: 20 mg/kg, qd, oral gavage, 8 days. The method, then: FIG. 24 panels A-C illustrate data related to the pharmacodynamic evaluation of antitumor effects of Compound I Free Acid Amorphous in Eμ-TCL1 with advanced leukemia. Mice were stratified according to leukemic peripheral blood lymphocytes (PBLs) and spleen palpation score to receive either vehicle or Compound I Free Acid Amorphous (20 mg/kg, qd, oral gavage) for 8 days. […] FIG. 24C is a representative immunoblot analysis of relative protein levels of cMYC, P21, BTK, IKZF1, IKZF3 and TCL1A protein at the end of the 8 day study. […] Mice were stratified according to leukemic peripheral blood lymphocytes (PBLs) and spleen palpation score to receive either vehicle or Compound I Free Acid Amorphous (20 mg/kg, qd, oral gavage) for 8 days. […] FIG. 24C is a representative immunoblot analysis of relative protein levels of cMYC, P21, BTK, IKZF1, IKZF3 and TCL1A protein at the end of the 8 day study.

Series [6] has as its system adaptive transfer model of Eμ-TCL1. The series is described as follows: Adaptive transfer model of Eμ-TCL1, treatment at leukemia onset. Type of series: in vivo, wild type mice. The conditions noted are these: 20 mg/kg, qd. The method, then:
(§1) FIG. 24 panels D-G: using an adaptive transfer model of Eμ-TCL1, recipient wild type mice were randomized to receive vehicle (n=12) or Compound I Free Acid Amorphous (20 mg/kg, qd, oral gavage, n=10) at leukemia onset and disease progression was measured by flow cytometry as % CD19/CD5/CD45 positive PBL. Treatment was ended at 150 days. FIG. 24D is a Kaplan-Meier curve showing overall survival (OS) (p<0.0001), with the median OS for Compound I Free Acid Amorphous and the vehicle being 93 days and 34 days, respectively. Survival comparisons for FIG. 24D were made with the log-rank test, and p-values were adjusted for multiple comparisons. Compound I Free Acid Amorphous decreased the percentage of circulating leukemic PBL (FIG. 24E), and reduced spleen mass (FIG. 24F).
as §1, with “Using” for “FIG. 24 panels D-G: using”

Setting [7] is: methanol (MeOH), ambient temperature.

Turning to `Cc1noc(C)c1-c1cnc2c(-c3ccc(C(=O)O)cc3)cn([C@@H](C)c3ccccn3)c2c1` [Compound I Form D, 4-(6-(3,5-dimethylisoxazol-4-yl)-1-[(1S)-1-(2-pyridyl)ethyl]pyrrolo[3,2-b]pyridin-3-yl)benzoic acid], the solubility – broadly, the concentration that dissolves in the medium under given conditions – in series [1] (acetone, ambient temperature) was 4000 µg/mL (≈ 9.12 mM); in series [1] (acetonitrile (ACN), ambient temperature), <3000 µg/mL; in series [1] (chloroform, organic solvent or mixture, thermodynamic from solid, chloroform, ambient temperature, read-out: Solubility), > 59000 µg/mL; in series [1] (dichloromethane (DCM), ambient temperature), 24000 µg/mL (≈ 54.7 mM); in series [1] (diethyl ether, organic solvent or mixture, thermodynamic from solid, diethyl ether, ambient temperature, read-out: Solubility), < 2000 µg/mL; in series [1] (dioxane, organic solvent or mixture, thermodynamic from solid, dioxane, ambient temperature, read-out: Solubility) it was < 2000 µg/mL. Also, the solubility in series [1] (ethanol, organic solvent or mixture, thermodynamic from solid, ethanol (EtOH), ambient temperature, read-out: Solubility) is 9000 µg/mL (≈ 20.5 mM); in series [1] (ethyl acetate, organic solvent or mixture, thermodynamic from solid, ethyl acetate (EtOAc), ambient temperature, read-out: Solubility) it was < 2000 µg/mL; in series [1] (isopropyl alcohol, organic solvent or mixture, thermodynamic from solid, isopropyl alcohol (IPA), ambient temperature, read-out: Solubility), 4000 µg/mL (≈ 9.12 mM); in series [1] (setting [7]), >72000 µg/mL; in series [1] (tetrahydrofuran, organic solvent or mixture, thermodynamic from solid, tetrahydrofuran (THF), ambient temperature, read-out: Solubility), 4000 µg/mL (≈ 9.12 mM); in series [1] (toluene, ambient temperature), <2000 µg/mL. In series [1] (water, thermodynamic from solid, water, ambient temperature, read-out: Solubility), the solubility was 23000 µg/mL (≈ 52.5 mM).

`Cc1noc(C)c1-c1cnc2c(-c3ccc(C(=O)O)cc3)cn([C@@H](C)c3ccccn3)c2c1` [Compound I Form A, 4-(6-(3,5-dimethylisoxazol-4-yl)-1-[(1S)-1-(2-pyridyl)ethyl]pyrrolo[3,2-b]pyridin-3-yl)benzoic acid]: the “solubility” value in series [1] (acetone, ambient temperature) is 36000 µg/mL (≈ 82.1 mM); in series [1] (acetonitrile, organic solvent or mixture, thermodynamic from solid, acetonitrile (ACN), ambient temperature, read-out: Solubility), 6000 µg/mL (≈ 13.7 mM); in series [1] (dichloromethane, organic solvent or mixture, thermodynamic from solid, dichloromethane (DCM), ambient temperature, read-out: Solubility), 12000 µg/mL (≈ 27.4 mM); in series [1] (setting [7]), 6000 µg/mL (≈ 13.7 mM); in series [1] (toluene, organic solvent or mixture, thermodynamic from solid, toluene, ambient temperature, read-out: Solubility), < 4000 µg/mL. The DVS weight gain result in series [2] is reported as “about 0.8%”.

As to `Cc1noc(C)c1-c1cnc2c(-c3ccc(C(=O)O)cc3)cn([C@@H](C)c3ccccn3)c2c1` [Compound I, 4-(6-(3,5-dimethylisoxazol-4-yl)-1-[(1S)-1-(2-pyridyl)ethyl]pyrrolo[3,2-b]pyridin-3-yl) benzoic acid], the tumor growth result in the series with uveal melanoma (UM) is “significantly inhibited tumor growth”. Also, the solubility in series [1] (acetone, organic solvent or mixture, thermodynamic from solid, Acetone, read-out: Solubility) is 3000 µg/mL (≈ 6.84 mM); in series [1] (acetonitrile, organic solvent or mixture, thermodynamic from solid, Acetonitrile, read-out: Solubility), < 1000 µg/mL; in series [1] (dichloromethane, organic solvent or mixture, thermodynamic from solid, Dichloromethane, read-out: Solubility), < 1000 µg/mL; in series [1] (dimethyl sulfoxide, organic solvent or mixture, thermodynamic from solid, Dimethyl sulfoxide, read-out: Solubility), > 93000 µg/mL; in series [1] (ethanol, organic solvent or mixture, thermodynamic from solid, Ethanol, read-out: Solubility), < 1000 µg/mL; in series [1] (ethyl acetate, organic solvent or mixture, thermodynamic from solid, Ethyl acetate, read-out: Solubility), < 1000 µg/mL. In addition, the solubility in series [1] (isopropanol, organic solvent or mixture, thermodynamic from solid, Isopropanol, read-out: Solubility) is < 1000 µg/mL; in series [1] (methanol, organic solvent or mixture, thermodynamic from solid, Methanol, read-out: Solubility), 1000 µg/mL (≈ 2.28 mM); in series [1] (tetrahydrofuran, organic solvent or mixture, thermodynamic from solid, Tetrahydrofuran, read-out: Solubility), 19000 µg/mL (≈ 43.3 mM); in series [1] (water, thermodynamic from solid, Water, read-out: Solubility) it was < 1000 µg/mL. For the same compound, the “efficacy relative to B-cell receptor (BCR) signaling agents” value in series [3] is listed as “emulatesor exceeds the efficacy of B-cell receptor (BCR) signaling agents”.

Regarding `Cc1noc(C)c1-c1cnc2c(-c3ccc(C(=O)O)cc3)cn([C@@H](C)c3ccccn3)c2c1` [Compound I Free Acid Amorphous, 4-(6-(3,5-dimethylisoxazol-4-yl)-1-[(1S)-1-(2-pyridyl)ethyl]pyrrolo[3,2-b]pyridin-3-yl)benzoic acid], the “median overall survival (OS)” value in series [4] was 41 days. For the same compound, the “survival compared with vehicle (p=0.024) and Ibrutinib (p=0.049)” value in series [4] (oral gavage, log-rank test) was “significantly increased survival”. Besides, the “leukemic cells in systemic circulation” value in series [5] (vs vehicle (FIG. 24A)) was “reduced”. Further, in series [5] (vs vehicle (FIG. 24B)), the “leukemic cells locally in spleen” value was “reduced”. Besides, the spleen mass entry in series [6] (oral gavage (FIG. 24F)) is “reduced”. In series [6] (oral gavage (FIG. 24G)), the “HE staining of spleen, lung and blood: lymphocytes” value is “depleted of lymphocytes”; the “Ki67 staining of spleen, lung and blood” value was “mostly absent”. Moreover, the “median overall survival (OS)” value in series [6] (oral gavage at leukemia onset, vehicle 34 days, p<0.0001 (FIG. 24D)) is on record as 93 days. Also, in series [6] (oral gavage, % CD19/CD5/CD45 positive PBL by flow cytometry (FIG. 24E)), the “percentage of circulating leukemic PBL” value is listed as “decreased”.

In the case of `C=CC(=O)N1CCC[C@@H](n2nc(-c3ccc(Oc4ccccc4)cc3)c3c(N)ncnc32)C1` [Ibrutinib, reference compound], the “median overall survival (OS)” value in series [4] is reported as 32 days.
